Data on five molecules can be found in patent US10167264B2, “Substituted pyrimidines useful as EGFR-T790M kinase inhibitors” (JIANGSU MEDOLUTION LTD, priority 2014, dated 2019).

“Also recorded” adds a separate entry of the source.

For one assay, the target named is EGFR (T790M/L858R) (Homo sapiens (Human), UniProt P00533, L858R/T790M). The assay can be described thus: In vitro EGFR (T790M/L858R) kinase binding assay (Kd, qPCR readout). Here is the method: (§1) Kinase-tagged T7 phage strains were prepared in an E. coli host derived from the BL21 strain. E. coli were grown to log-phase and infected with T7 phage and incubated with shaking at 32° C. until lysis. The lysates were centrifuged and filtered to remove cell debris. The remaining kinases were produced in HEK-293 cells and subsequently tagged with DNA for qPCR detection. Streptavidin-coated magnetic beads were treated with biotinylated small molecule ligands for 30 minutes at room temperature to generate affinity resins for kinase assays. The liganded beads were blocked with excess biotin and washed with blocking buffer (SeaBlock (Pierce), 1% BSA, 0.05% Tween 20, 1 mM DTT) to remove unbound ligand and to reduce non-specific binding. […] All reactions were performed in polystyrene 96-well plates in a final volume of 0.135 ml. […] The kinase concentration in the eluates was measured by qPCR.
(§2) An 11-point 3-fold serial dilution of each test compound was prepared in 100% DMSO at 100× final test concentration and subsequently diluted to 1× in the assay (final DMSO concentration=1%). Kds were determined using a compound top concentration=10,000 nM.
Binding constants (Kds) were calculated with a standard dose-response curve using the Hill equation: Response=Background+(Signal−Background)/(1+(Kd^Hill Slope/Dose^Hill Slope)). The Hill Slope was set to −1. Curves were fitted using a non-linear least square fit with the Levenberg-Marquardt algorithm.
(In general: Real-time PCR tracks product formation cycle by cycle.)

A further assay deals with EGFR (Homo sapiens (Human), UniProt P00533). Nature of the assay: In vitro EGFR kinase binding assay (Kd), similar condition. Here is the method: as §1, §2
(§3) Binding constants (Kds) were calculated with a standard dose-response curve using the Hill equation: Response=Background+(Signal−Background)/(1+(Kd^Hill Slope/Dose^Hill Slope)). The Hill Slope was set to −1. […]

The next assay concerns the target EGFR (E746-A750del) (Homo sapiens (Human), UniProt P00533, DEL746-750). Nature of the assay: In vitro EGFR (E746-A750del) kinase binding assay (Kd), similar condition. The method, then: as §1, §2, §3
The test system of assay [1] is NCI-H1975 cell line xenograft. The assay can be described thus: Subcutaneous NCI-H1975 cell line xenograft model in nude mice. The class given is in vivo. As to conditions: for Efficacy in the NCI-H1975 xenograft study (in words): Day 14; for Tumor growth inhibition (TGI, %) in NCI-H1975 xenograft model: nude mice. Here is the method: A representative protocol for the in vivo experiment is as follows to establish the subcutaneous NCI-H1975 cell line xenograft model in nude mice and to evaluate the in vivo therapeutic efficacy of the compounds: H1975 cells were cultured in RPMI1640 containing 10% fetal bovine serum, 1% L-glutamine, 100 U/mL penicillinG and 100 μg/mL streptomycin. Cells in logarithmic growth phase were harvested and resuspended in 1×PBS for implantation. Tumor xenografts were established by injecting tumor cells 5×10^6/mouse into the right flank by sc under sterile conditions. When the tumors reached an appropriate size (100-200 mm^3), mice were randomized into 6 mice per group (8 mice in control group). The tumors were measured using a caliper in two dimensions, length (a), and width (b). Tumor volumes were estimated from measurements of two diameters of the individual tumors as follows: Tumor Volume (mm^3)=(a×b^2)/2 The tumor sizes and animal body weights were measured twice a week. Mice were observed daily for clinical signs. Blood samples were collected 2 hours after the last treatment, plasma samples were prepared and stored at −80° C. Tumor tissues were separated, weighed, taken picture, and subsequently stored at −80° C. for further analysis. All animal experiments were performed in accordance with the Guidelines for Use and Care of Animals of the University of Traditional Medicine. The parameters for in vivo efficacy evaluation were calculated according to the guidance of SFDA. Percent T/C (%) was calculated with the following formula: T/C(%)=(TRTV/CRTV)×100%, where TRTV and CRTV stand for relative tumor volume in treatment group and vehicle control group, respectively. Relative tumor volume (RTV) was calculated using the formula: RTV=Vt/V0, where Vt represents volume on testing day, and V0 represents volume on first day of treatment. […] At the study endpoint, after blood collection, mice were practised euthanasia by cervical dislocation, the tumor tissue was collected first, then the abdominal cavity was cut open, liver and spleen were excised, and weighted after the gallblader was removed respectively. Organ weights between the treated versus the control groups were compared.

Another assay relates to NCI-H1975. Nature of the assay: Cell proliferation assay (MTT) against cancer cell line NCI-H1975. The format is cell-based. As to conditions: Homo sapiens, NCI-H1975, 72 hours treatment, quantity not given. Here is the method: A Representative Number of Compounds were Assayed Against Cancer Cell Lines NCI-H1975, Using the Cell Proliferation Assay:
1. 5×10^3 cells per well in 100 μl of medium were seeded in 96-well plate, while the medium contained 5% FBS
2. 24 hours later, 100 μl fresh medium was added with various concentrations of compounds into each well, while the medium here was free of FBS
3. After the cells were treated with compounds for 72 hours, 20 μl MTT (5 mg/ml) was added into each well, and then the assay plate was incubated at 37° C. for 4 more hours.
4. The assay plate was centrifuged at 800 g for 10 min. The medium was aspirated, 150 μl DMSO was added into each well. The plate was gently shaken for 10 min.
5. The absorbance at 570 nm was measured on the plate reader.

Chain of EGFR (T790M/L858R) (P00533 25-1210 T790M/L858R): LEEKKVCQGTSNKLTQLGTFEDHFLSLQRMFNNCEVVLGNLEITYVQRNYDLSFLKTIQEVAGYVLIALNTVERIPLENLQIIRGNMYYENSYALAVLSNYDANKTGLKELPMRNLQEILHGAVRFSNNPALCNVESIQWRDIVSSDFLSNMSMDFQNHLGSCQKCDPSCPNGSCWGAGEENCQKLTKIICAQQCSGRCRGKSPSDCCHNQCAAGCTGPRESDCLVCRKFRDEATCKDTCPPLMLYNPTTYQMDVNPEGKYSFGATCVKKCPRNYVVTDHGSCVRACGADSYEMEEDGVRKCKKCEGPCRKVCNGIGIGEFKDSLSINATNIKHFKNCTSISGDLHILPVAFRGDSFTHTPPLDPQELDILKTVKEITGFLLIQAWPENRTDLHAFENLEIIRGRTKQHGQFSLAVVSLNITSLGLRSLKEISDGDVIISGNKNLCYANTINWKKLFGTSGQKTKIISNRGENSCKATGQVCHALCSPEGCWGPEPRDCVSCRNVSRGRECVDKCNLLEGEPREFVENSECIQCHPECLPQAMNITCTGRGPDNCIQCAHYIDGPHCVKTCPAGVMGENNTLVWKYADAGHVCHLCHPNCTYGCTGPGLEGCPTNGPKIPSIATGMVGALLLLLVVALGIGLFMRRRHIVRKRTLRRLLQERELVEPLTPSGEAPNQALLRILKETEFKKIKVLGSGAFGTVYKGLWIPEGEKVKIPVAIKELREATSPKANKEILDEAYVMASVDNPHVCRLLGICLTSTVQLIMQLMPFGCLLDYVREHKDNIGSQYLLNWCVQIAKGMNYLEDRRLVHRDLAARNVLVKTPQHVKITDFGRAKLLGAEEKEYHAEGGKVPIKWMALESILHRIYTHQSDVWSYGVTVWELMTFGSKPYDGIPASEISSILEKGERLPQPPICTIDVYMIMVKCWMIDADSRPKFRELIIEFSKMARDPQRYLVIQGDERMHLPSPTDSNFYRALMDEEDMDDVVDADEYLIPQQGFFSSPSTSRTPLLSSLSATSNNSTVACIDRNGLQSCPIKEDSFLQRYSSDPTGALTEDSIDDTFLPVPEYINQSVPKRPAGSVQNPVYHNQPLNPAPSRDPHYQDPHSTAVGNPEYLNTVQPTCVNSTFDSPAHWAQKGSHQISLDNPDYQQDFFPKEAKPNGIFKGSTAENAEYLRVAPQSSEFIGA
Chain of EGFR (E746-A750del) (P00533 other isoform, or with tags, fused parts or gaps del E746-A750): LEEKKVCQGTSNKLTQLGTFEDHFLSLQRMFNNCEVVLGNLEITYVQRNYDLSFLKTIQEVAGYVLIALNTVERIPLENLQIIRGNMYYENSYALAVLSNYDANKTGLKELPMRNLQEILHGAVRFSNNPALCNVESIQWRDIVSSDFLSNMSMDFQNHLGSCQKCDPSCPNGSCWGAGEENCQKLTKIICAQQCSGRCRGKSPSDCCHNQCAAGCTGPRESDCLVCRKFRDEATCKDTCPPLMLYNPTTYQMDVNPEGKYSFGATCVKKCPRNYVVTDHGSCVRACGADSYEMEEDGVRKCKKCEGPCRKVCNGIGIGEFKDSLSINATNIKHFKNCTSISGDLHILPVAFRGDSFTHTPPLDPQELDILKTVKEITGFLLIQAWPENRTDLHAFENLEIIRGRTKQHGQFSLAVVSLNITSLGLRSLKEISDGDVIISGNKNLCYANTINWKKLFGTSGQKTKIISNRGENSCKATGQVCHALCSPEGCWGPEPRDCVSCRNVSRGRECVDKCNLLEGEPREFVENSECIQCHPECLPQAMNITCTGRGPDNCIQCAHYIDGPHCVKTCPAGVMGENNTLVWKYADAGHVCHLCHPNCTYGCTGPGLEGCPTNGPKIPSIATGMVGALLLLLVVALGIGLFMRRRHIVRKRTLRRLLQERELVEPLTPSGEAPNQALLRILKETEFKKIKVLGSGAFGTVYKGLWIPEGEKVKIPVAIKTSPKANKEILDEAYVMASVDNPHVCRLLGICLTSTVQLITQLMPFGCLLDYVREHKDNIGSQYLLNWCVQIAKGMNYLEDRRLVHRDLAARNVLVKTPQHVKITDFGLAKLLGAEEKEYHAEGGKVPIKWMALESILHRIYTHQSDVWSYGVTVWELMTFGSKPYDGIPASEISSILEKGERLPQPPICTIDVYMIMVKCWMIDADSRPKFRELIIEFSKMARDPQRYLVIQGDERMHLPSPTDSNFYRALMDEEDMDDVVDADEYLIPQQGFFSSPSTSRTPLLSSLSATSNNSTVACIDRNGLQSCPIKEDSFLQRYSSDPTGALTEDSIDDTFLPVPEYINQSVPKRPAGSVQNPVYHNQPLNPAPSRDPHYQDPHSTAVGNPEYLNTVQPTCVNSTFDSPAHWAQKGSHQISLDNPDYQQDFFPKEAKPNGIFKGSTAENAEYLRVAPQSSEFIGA
Chain of EGFR (P00533 25-1210): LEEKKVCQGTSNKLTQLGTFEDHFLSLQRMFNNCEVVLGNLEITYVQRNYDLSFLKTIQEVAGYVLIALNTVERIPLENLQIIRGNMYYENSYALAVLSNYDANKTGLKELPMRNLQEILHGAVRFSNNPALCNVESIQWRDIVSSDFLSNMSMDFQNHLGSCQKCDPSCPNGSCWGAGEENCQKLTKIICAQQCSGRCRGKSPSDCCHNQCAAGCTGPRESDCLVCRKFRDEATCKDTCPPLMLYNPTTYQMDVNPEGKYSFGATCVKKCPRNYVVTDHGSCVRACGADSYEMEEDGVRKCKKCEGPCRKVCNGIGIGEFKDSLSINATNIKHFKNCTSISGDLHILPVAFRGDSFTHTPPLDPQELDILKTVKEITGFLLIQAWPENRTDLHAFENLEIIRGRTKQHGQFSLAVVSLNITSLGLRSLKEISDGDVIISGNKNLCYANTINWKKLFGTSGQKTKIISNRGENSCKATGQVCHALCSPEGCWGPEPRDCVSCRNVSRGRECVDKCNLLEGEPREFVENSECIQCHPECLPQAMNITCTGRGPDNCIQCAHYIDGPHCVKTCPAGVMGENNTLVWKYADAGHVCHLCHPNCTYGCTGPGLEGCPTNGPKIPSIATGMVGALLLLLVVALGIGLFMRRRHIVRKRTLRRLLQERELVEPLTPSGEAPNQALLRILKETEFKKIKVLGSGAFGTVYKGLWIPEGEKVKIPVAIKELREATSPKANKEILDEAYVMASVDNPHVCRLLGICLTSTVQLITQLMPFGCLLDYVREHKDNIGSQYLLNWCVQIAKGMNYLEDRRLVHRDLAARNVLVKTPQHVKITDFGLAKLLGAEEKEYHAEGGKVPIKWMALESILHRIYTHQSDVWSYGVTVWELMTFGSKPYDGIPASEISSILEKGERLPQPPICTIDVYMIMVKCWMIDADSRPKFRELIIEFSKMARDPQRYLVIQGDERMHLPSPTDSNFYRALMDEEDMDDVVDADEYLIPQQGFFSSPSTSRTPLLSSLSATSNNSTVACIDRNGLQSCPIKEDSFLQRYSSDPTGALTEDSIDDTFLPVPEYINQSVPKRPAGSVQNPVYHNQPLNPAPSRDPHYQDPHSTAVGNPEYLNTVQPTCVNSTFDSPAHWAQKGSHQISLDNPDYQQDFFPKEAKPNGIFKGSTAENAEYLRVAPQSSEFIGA

The term Kd denotes the constant that tells how readily two partners part at equilibrium. Read a low Kd as a tighter complex. `C=CC(=O)Nc1cccc(Nc2nc(Nc3ccc(N4CCN(C(C)=O)CC4)cc3)ncc2C(F)(F)F)c1` [Compound 8, N-[3-[[2-[4-(4-acetylpiperazin-1-yl)anilino]-5-(trifluoromethyl)pyrimidin-4-yl]amino]phenyl]prop-2-enamide]: the Kd turned out to be 0.54 nM at EGFR (T790M/L858R), 84 nM on EGFR and 26 nM at EGFR (E746-A750del). In addition, the “Efficacy in the NCI-H1975 xenograft study (in words)” value in assay [1] is given as “good efficacy”. In assay [1] (Day 14, 30 mg/kg), the “Tumor growth inhibition (TGI, %) in NCI-H1975 xenograft model” value (“Tumor growth inhibition (TGI, %)” for short) was “TGI = 49%”.
In general, IC50 refers to the concentration needed to halve the response being measured. Take `C=CC(=O)Nc1cccc(Nc2nc(Nc3ccc(N4CCN(CC)CC4)cc3)ncc2C(F)(F)F)c1` [Compound 9, N-[3-[[2-[4-(4-ethylpiperazin-1-yl)anilino]-5-(trifluoromethyl)pyrimidin-4-yl]amino]phenyl]prop-2-enamide]: the Kd on EGFR (T790M/L858R) was 0.037 nM; at EGFR, 15 nM; on EGFR (E746-A750del), 4 nM. Also, in the assay on NCI-H1975, the IC50 is under 10 nM. The “Efficacy in the NCI-H1975 xenograft study (in words)” value in assay [1] is reported as “good efficacy; also recorded: much better tumor growth inhibition compared with CO-1686”. For the same molecule, in assay [1] (Day 14, 6 mg/kg), the “Tumor growth inhibition (TGI, %)” value was “TGI = 76%”.
The molecule `C=CC(=O)Nc1cccc(Oc2nc(Nc3ccc(N4CCN(C)CC4)cc3OC)ncc2Cl)c1` [WZ4002, reference compound] displayed an IC50 in the assay with NCI-H1975 of 67 nM.
Regarding `C=CC(=O)Nc1cccc(Nc2nc(Nc3ccc(N4CCN(CC)CC4)cc3OC)ncc2C(F)(F)F)c1` [Compound 10, N-[3-[[2-[4-(4-ethylpiperazin-1-yl)-2-methoxy-anilino]-5-(trifluoromethyl)pyrimidin-4-yl]amino]phenyl]prop-2-enamide], the Kd at EGFR (T790M/L858R) came out at 0.28 nM. Also, in the assay with NCI-H1975, inhibition was half-maximal at 150 nM (IC50).
`C=CC(=O)Nc1cccc(Nc2nc(Nc3ccc(N4CCN(C(C)=O)CC4)cc3OC)ncc2C(F)(F)F)c1` [CO-1686, reference compound] yielded an IC50 in the assay with NCI-H1975 of 910 nM. For the same molecule, the “Tumor growth inhibition (TGI, %)” value in assay [1] (Day 14, 30 mg/kg) is listed as “TGI = 83%”.
